Here are results for 31 compounds from PubChem BioAssay (NCI).

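Protocol summary: plate cells (96-well), add compound at 5 concentrations, incubate 48 h, interpolate endpoints linearly. TGI is the concentration that stops growth completely.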

The first experiment concerns M19-MEL melanoma. Put plainly: growth of human tumour cells (NCI), 48 h.
`CC1SC2=NC3=C(c4ccccc4C3=O)C(c3ccc(F)cc3)N2C1=O` (configuration not stated) had a TGI of over 100 µM.

As to `CCCC(=O)OC1C(C(O)CO)OC2OC(C)(C)OC21` (configuration not stated), the TGI is over 100 µM.

For `Cc1ccc(N=Cc2ccc3c(c2)OCO3)cc1C`, the TGI is over 100 µM.

On to `CC(=O)OCC1OC(OC2C(CSC3OC(COC(C)=O)C(OC(C)=O)C(OC(C)=O)C3OC(C)=O)OC(OC(C)=O)C(OC(C)=O)C2OC(C)=O)C(OC(C)=O)C(OC(C)=O)C1OC(C)=O` (configuration not stated), for which the TGI is over 100 µM.

In turn, `NNC(=O)/C(=C/c1ccc(Cl)cc1Cl)NC(=O)c1ccccc1` came in with a TGI of over 100 µM.

On to `CC1C=C(OC(=O)c2ccccc2)C(=O)C(n2cc(F)c(=O)[nH]c2=O)O1` (configuration not stated), for which the TGI was over 100 µM.

As for `CCc1ccccc1NC(=O)C(=O)CC(=O)c1sc(Nc2ccccc2)nc1C`, the TGI was over 100 µM.

Regarding `COc1ccc(OC)c(NC(=O)C2=C(C)NC(C)=C(C(=O)Nc3cc(OC)ccc3OC)C2c2ccccc2)c1`, the TGI is over 100 µM.

The subject of another experiment is DMS 114 small cell lung. Kind of experiment: growth of human tumour cells (NCI), 48 h.
Compound `C/C(=N\NS(=O)(=O)c1ccccc1)c1ccc(Cl)c(Cl)c1` returned a TGI of over 100 µM.

In turn, `COC(=O)C(=O)C1(CCC(C)=O)c2ccccc2-c2c(C)ccc(C)c21` (configuration not stated) displayed a TGI of over 100 µM.

The compound `CC1(C)C(=NNC(=O)C[N+](C)(C)C)C(C)(C)C1=NNC(=O)C[N+](C)(C)C` came in with a TGI of over 100 µM.

For `COc1ccc2nc(-c3cccs3)cc(C(O)CN3CCSCC3)c2c1` (configuration not stated), the TGI worked out at 38.7 µM.

`N#C/C(=C\c1ccc(O)c(O)c1)C(N)=S` had a TGI of over 100 µM.

`O=C(CN1CCOCC1)Nc1nc(-c2ccc(Cl)cc2)cs1` registered a TGI of 65.8 µM.

For `CC(C)[C@H]1CO[C@]2(C)[C@@H]3CN(Cc4ccccc4)C[C@@H]3C(=O)N12`, the TGI was over 100 µM.

As to `CN(C)C(=O)OC(Cn1cncn1)c1ccc(Cl)cc1Cl` (configuration not stated), the TGI is over 100 µM.

`CCOC(=O)COc1ccccc1/C=C1\CCC(CN(C)C)C1=O` (configuration not stated) came in with a TGI of 24.2 µM.

`Cc1c(C(=O)C/C(=N\O)C(=O)Nc2cc(Cl)c(Cl)cc2Cl)[n+](=O)c2ccccc2n1[O-]` showed a TGI of 19.9 µM.

In turn, `CC1=Nc2ccccc2S/C1=C(/C)NNC(=O)C(N)=O` came in with a TGI of over 100 µM.

Take `Nn1c(NNC(=O)C(=O)Nc2cc(Cl)c(Cl)cc2Cl)n[nH]c1=S`: the TGI was over 100 µM.

Consider `O=C(N/C(=C\c1ccc2c(c1)OCO2)c1nc2ccccc2[nH]1)c1ccccc1`, for which the TGI was found to be 6.08 µM.

Turning to `CSc1ccc(C2OC(=O)c3ccccc32)c2ccccc12` (configuration not stated), the TGI was over 100 µM.

In the case of `Cc1[nH]ccc2c1[nH]c1cc(=O)ccc12`, the TGI was over 100 µM.

The compound `C#CCOCn1cnc2c(Cl)ncnc21` gave a TGI of over 100 µM.

Compound `NC1C[C@H](n2cc(/C=C/Br)c(=O)[nH]c2=O)C[C@@H]1CO` (some centres not stated) showed a TGI of over 100 µM.

For `O=c1/c(=C/c2ccccc2F)sc2nc3ccccc3n12`, the TGI was over 100 µM.

As for `CC1=C(C)C(=O)c2c(cc3ccccn23)C1=O`, the TGI came to 26.9 µM.

In turn, `O=C(NCCCCCCNC(=O)n1cc(F)c(=O)[nH]c1=O)NCCCOCCOCCOCCOCCOCCOCCOCCOCCOCCOCCOCCOCCOCCOCCOCCOCCOCCOCCOCCOCCOCCCNC(=O)C(O)C(O)C(O)C(O)CO` (configuration not stated) gave a TGI of over 100 µM.

Regarding `CC1SC2=NC3=C(c4ccccc4C3=O)C(c3ccc(F)cc3)N2C1=O` (configuration not stated), the TGI is over 100 µM.

`CCCC(=O)OC1C(C(O)CO)OC2OC(C)(C)OC21` (configuration not stated) came in with a TGI of over 100 µM.

For `CC(=O)OCC1OC(OC2C(CSC3OC(COC(C)=O)C(OC(C)=O)C(OC(C)=O)C3OC(C)=O)OC(OC(C)=O)C(OC(C)=O)C2OC(C)=O)C(OC(C)=O)C(OC(C)=O)C1OC(C)=O` (configuration not stated), the TGI was over 100 µM.

On to `NNC(=O)/C(=C/c1ccc(Cl)cc1Cl)NC(=O)c1ccccc1`, for which the TGI is over 100 µM.

With `CC1C=C(OC(=O)c2ccccc2)C(=O)C(n2cc(F)c(=O)[nH]c2=O)O1` (configuration not stated), the TGI is over 100 µM.

For `CCc1ccccc1NC(=O)C(=O)CC(=O)c1sc(Nc2ccccc2)nc1C`, the TGI is over 100 µM.

The compound `COc1ccc(OC)c(NC(=O)C2=C(C)NC(C)=C(C(=O)Nc3cc(OC)ccc3OC)C2c2ccccc2)c1` registered a TGI of over 100 µM.

Compound `Cc1ccc(NC(=O)C(=O)C(C#N)c2ccccc2C)cc1C` (configuration not stated) displayed a TGI of over 59.2 µM.

`Nc1ccn(CCNCCn2cnc3nc(N)[nH]c(=O)c32)c(=O)n1` registered a TGI of over 100 µM.

For the next experiment, the system named is DMS 273 small cell lung. Kind of experiment: growth of human tumour cells (NCI), 48 h.
With `C/C(=N\NS(=O)(=O)c1ccccc1)c1ccc(Cl)c(Cl)c1`, the TGI is over 100 µM.

Compound `COC(=O)C(=O)C1(CCC(C)=O)c2ccccc2-c2c(C)ccc(C)c21` (configuration not stated) displayed a TGI of over 100 µM.

`CC1(C)C(=NNC(=O)C[N+](C)(C)C)C(C)(C)C1=NNC(=O)C[N+](C)(C)C` displayed a TGI of over 100 µM.

Take `COc1ccc2nc(-c3cccs3)cc(C(O)CN3CCSCC3)c2c1` (configuration not stated): the TGI is 40 µM.

Take `N#C/C(=C\c1ccc(O)c(O)c1)C(N)=S`: the TGI is over 100 µM.

In the case of `O=C(CN1CCOCC1)Nc1nc(-c2ccc(Cl)cc2)cs1`, the TGI worked out at 41.8 µM.

The compound `COc1cc(C(=O)C/C(CCCC(=O)Nc2ccccc2[N+](=O)[O-])=N/NC(=O)c2cc3ccccc3cc2O)ccc1O` showed a TGI of 43.6 µM.

Compound `CC(C)[C@H]1CO[C@]2(C)[C@@H]3CN(Cc4ccccc4)C[C@@H]3C(=O)N12` showed a TGI of over 100 µM.

In turn, `CN(C)C(=O)OC(Cn1cncn1)c1ccc(Cl)cc1Cl` (configuration not stated) had a TGI of over 100 µM.

With `CCOC(=O)COc1ccccc1/C=C1\CCC(CN(C)C)C1=O` (configuration not stated), the TGI stood at 8.17 µM.

`Cc1c(C(=O)C/C(=N\O)C(=O)Nc2cc(Cl)c(Cl)cc2Cl)[n+](=O)c2ccccc2n1[O-]` gave a TGI of 38 µM.

The compound `CC1=Nc2ccccc2S/C1=C(/C)NNC(=O)C(N)=O` displayed a TGI of over 100 µM.

In the case of `O=C(N/C(=C\c1ccc2c(c1)OCO2)c1nc2ccccc2[nH]1)c1ccccc1`, the TGI was over 100 µM.

`Cc1[nH]ccc2c1[nH]c1cc(=O)ccc12` displayed a TGI of over 100 µM.

On to `C#CCOCn1cnc2c(Cl)ncnc21`, for which the TGI was over 100 µM.
